# Patent publication US11090313B2, “Methods for inhibiting muscle atrophy” (UNIVERSITY OF IOWA RESEARCH FOUNDATION, priority 2010, dated 2021)
# “Also recorded” adds a separate entry of the source.
# Assays:
# Assay type in all cases: in vivo, mouse
# [1] = tested on: C57BL/6 mice; assay: Fasting-induced muscle atrophy in mice (i.p. dosing, 24 h fast); conditions: for skeletal muscle weight in fasted mice (fasting-induced muscle atrophy) / fasting blood glucose: i.p. at 0 and 12 h of 24 h fast; for skeletal muscle weight in fasted mice (fasting-induced muscle atrophy): vs vehicle, mg/kg: ursolic acid 200, oleanolic acid 200, metformin 250, tomatidine 50, allantoin 2, tacrine 4, ungerine 2, hippeastrine 2, conessine 2; for fasting blood glucose: mice, mg/kg: metformin 250, ursolic acid 200, hippeastrine 2, conessine 2
# Experimental: The mice were then fasted, and after 12 hours of fasting, the mice received a second dose of the compound or vehicle. After 24 hours of fasting, the blood glucose was measured and muscles were harvested. The data shown in FIGS. 6C-6H are means±SEM from ≤16 mice per condition. […] The effects of metformin and ursolic acid on fasting-induced muscle atrophy were also examined, i.e. the effect of 24 h fast (relative to ad lib feeding) on wet weight of lower hindlimb skeletal muscle (bilateral tibialis anterior (“TA” muscle), gastrocnemius, and soleus; see FIGS. 6E-6G). […] In FIGS. 6E-6H, each data point represents one mouse and the horizontal bars denote the means. In FIGS. 6C-6H, P-values were determined using unpaired t-tests.
# Mice were then fasted, and after 12 hours of fasting, mice received a second dose of ursolic acid, oleanolic acid, or vehicle. After 24 hours of fasting, lower hindlimb skeletal muscles and liver were harvested and weighed.
# To test this, food was withdrawn from mice, and then vehicle, ursolic acid (200 mg/kg) or tomatidine (50 mg/kg) were administered by i.p. injection. Twelve hours later, mice received another i.p. injection of vehicle or the same dose of ursolic acid or tomatidine. Twelve hours later, skeletal muscles were harvested and weighed. […] We next used the same protocol to compare the effects of vehicle (corn oil) and tomatidine (5, 15 and 50 mg/kg).
# [2] = tested on: mice; assay: High fat diet with ursolic acid and/or naringenin; conditions: HFD with ursolic acid 0.15% and/or naringenin 0.5% or 1.5%, 5 weeks
# Experimental: To determine this, weight-matched mice were provided ad libitum access to standard (Harlan Teklad formula 7013), high fat diet (HFD; Harlan Teklad formula TD93075), or HFD containing varying concentrations of ursolic acid (0.15%) and/or naringenin (0.5% or 1.5%). After the mice consumed these diets for 5 weeks, fasting blood glucose, total body weight, fat mass, liver weight, grip strength, and skeletal muscle weight was measured.
# [3] = tested on: mice; assay: Immobilization-induced skeletal muscle atrophy model (stapled tibialis anterior); conditions: for immobilization-induced muscle atrophy (weights of immobile vs mobile TA): 2 days before and 6 days after immobilization, ursolic acid and betulinic acid varying doses, naringenin 200 mg/kg, tomatidine 5-200 mg/kg
# Experimental: To test this, a mouse model of immobilization-induced skeletal muscle atrophy was used: mice were administered vehicle (corn oil) or varying doses of ursolic acid (positive control) or betulinic acid via intraperitoneal injection twice a day for two days. One tibialis anterior (TA) muscle was immobilized with a surgical staple, leaving the contralateral mobile TA as an intra-subject control. The vehicle or the same dose of ursolic acid or betulinic acid was continuously administered via i.p. injection twice daily for six days before comparing weights of the immobile and mobile TAs.
# To test this, mice were administered vehicle (corn oil), ursolic acid (200 mg/kg), naringenin (200 mg/kg), or the combination of ursolic acid and naringenin (each at 200 mg/kg) via i.p injection twice a day for two days. One tibialis anterior (TA) muscle was immobilized with a surgical staple, leaving the contralateral mobile TA as an intrasubject control. Vehicle or the same doses of ursolic acid and/or naringenin was continuously administered via i.p. injection twice daily for six days before comparing weights of the immobile and mobile TAs.
# To test this, mice were administered vehicle (corn oil) or tomatidine (50, 100 or 200 mg/kg) via i.p injection twice a day for two days. One tibialis anterior (TA) muscle was immobilized with a surgical staple, leaving the contralateral mobile TA as an intrasubject control. Vehicle or the same doses of tomatidine was administered via i.p. injection twice daily for six days before comparing weights of the immobile and mobile TAs. […] The same protocol was used to compare the effects of vehicle (corn oil) and tomatidine (5, 15 or 50 mg/kg) on immobilization-induced muscle atrophy.
SMILES,skeletal muscle weight in fasted mice (fasting-induced muscle atrophy) [1],fasting blood glucose [1],other results
NC(=O)NC1NC(=O)NC1=O (stereo not drawn) [allantoin],increased muscle weight in fasted mice; also recorded: reduce fasting-induced muscle atrophy,,
C[C@H]1[C@H]2CC[C@H]3[C@@H]4CC=C5C[C@@H](N(C)C)CC[C@]5(C)[C@H]4CC[C@]23CN1C [conessine],increased muscle weight in fasted mice; also recorded: reduce fasting-induced muscle atrophy,reduce fasting blood glucose,
CN1CCC2=C[C@@H](O)[C@@H]3OC(=O)c4cc5c(cc4[C@@H]3[C@H]21)OCO5 [hippeastrine],increased muscle weight in fasted mice; also recorded: reduce fasting-induced muscle atrophy,reduce fasting blood glucose,
"CN(C)C(=N)N=C(N)N [metformin, reference compound]",did not alter muscle weight; also recorded: do not reduce skeletal muscle atrophy,significantly reduced fasting blood glucose,
O=C1CC(c2ccc(O)cc2)Oc2cc(O)cc(O)c21 (stereo not drawn) [naringenin],,,fasting blood glucose in high fat fed mice [2]: partially prevented; immobilization-induced muscle atrophy (weights of immobile vs mobile TA) ([3]; i.p. twice daily): reduced muscle atrophy; also recorded: reduces immobilization-induced skeletal muscle atrophy
"CC1(C)CC[C@]2(C(=O)O)CC[C@]3(C)C(=CC[C@@H]4[C@@]5(C)CC[C@H](O)C(C)(C)[C@@H]5CC[C@]43C)[C@@H]2C1 [oleanolic acid, reference compound]",do not reduce skeletal muscle atrophy,,
"Nc1c2c(nc3ccccc13)CCCC2 [tacrine, reference compound]",increased muscle weight in fasted mice; also recorded: reduce fasting-induced muscle atrophy,,
C[C@H]1CC[C@]2(NC1)O[C@H]1C[C@H]3[C@@H]4CC[C@H]5C[C@@H](O)CC[C@]5(C)[C@H]4CC[C@]3(C)[C@H]1[C@@H]2C [tomatidine],increased skeletal muscle; also recorded: increased muscle weight in fasted mice; also recorded: reduces fasting-induced muscle atrophy,,"dose of maximal inhibition of immobilization-induced muscle atrophy ([3]; i.p. twice daily): 50 mg/kg; potency relative to ursolic acid in immobilization-induced muscle atrophy ([3]; i.p. twice daily): more potent than ursolic acid; immobilization-induced muscle atrophy (weights of immobile vs mobile TA) ([3]; i.p. twice daily): reduced muscle atrophy; also recorded: reduces immobilization-induced muscle atrophy; EC50, reduction of immobilization-induced muscle atrophy ([3]; tomatidine 5, 15 or 50 mg/kg i.p. twice daily): < 5 mg/kg; dose of maximal effect on fasting-induced muscle atrophy ([1]; tomatidine 5, 15 and 50 mg/kg i.p. twice, 24 h fast): 50 mg/kg"
CO[C@@H]1C=C2CCN(C)[C@@H]2[C@H]2c3cc4c(cc3C(=O)O[C@H]21)OCO4 [ungerine],increased muscle weight in fasted mice; also recorded: reduce fasting-induced muscle atrophy,,
